Patent US9872904B2, “Photoimmunoconjugates for use in photodynamic therapy” (Fraunhofer-Gesellschaft zur Foerderung der angewandten …, priority 2012, dated 2018)

Assays:
caspase-3 and caspase-7 = experiment: Apo-ONE Homogeneous Caspase-3/7 Assay; type: cell-based, human; conditions: 200 nM; 24 h after light activation; A431, MDA-MB-231, MDA-MB468, SiHa and CHO-K1 cells analyzed
Procedure: (§1) Control cultures were incubated with 500 μg/ml zeocin instead of the photosensitizer. The cells were then irradiated with 24 J/cm^2 broadband visible/near infrared light using Hydrosun type 505, 7-mm water cuvette and orange filter OG590, spectrum in the range 580-1400 nm (Hydrosun Medizintechnik GmbH, Müllheim, Germany) and incubated for a further 24 h at 37° C. in a 5% CO2 atmosphere.
Caspase-3/7 activity in cell lysates was determined using the Apo-ONE Caspase-3/7 assay (Promega, Mannheim, Germany) 24 h after light activation. Briefly, 100 μl of Apo-ONE reagent was added to the cells, and they were incubated for 6 h before fluorescence readings were taken with an ELISA plate reader Elisareader ELx808 (Bio-TEK, Bad Friedrichsahll, Germany) using an excitation wavelength of 485 nm and an emission wavelength of 535 nm. The concentration of ROS was determined by measuring the 485/535 nm fluorescence ratio of H2DCFDA (Invitrogen, Darmstadt, Germany). […] The cells were washed twice with warm PBS containing 2.5% FCS, cultured for 2 h in […] medium and illuminated as described above. Fluorescence readings were taken directly after illumination. A blank probe (cells and medium) reading was used as the background and subtracted from all the sample readings.

[1] = tested on: A431, MDA-MB-231, MDA-MB468 and SiHa cells; experiment: Confocal microscopy binding and internalization, EGFR^+ cells; type: cell-based, human
Procedure: (§2) Images were visualized with a TCS SP5 confocal microscope (LEICA Microsystem, Wetzlar, Germany). Cells were prepared as described above for flow cytometry. Binding efficiency was determined by incubating cells with the labeled fusion proteins for 30 min on ice. Internalization was monitored by incubating cells with the labeled fusion proteins for 30 min at 37° C.

[2] = tested on: EGFR^− cell lines L540 and CHO-K1; experiment: Confocal microscopy binding and internalization, EGFR^− cells; type: cell-based, human; conditions: 4° C. and 37° C.
Procedure: as §2

A431 cells = experiment: ROS generation (carboxy-H2DCFDA fluorescence) in photosensitized A431 cells; type: cell-based, human; conditions: 200 nM
Procedure: Caspase-3/7 activity in cell lysates was determined using the Apo-ONE Caspase-3/7 assay (Promega, Mannheim, Germany) 24 h after light activation. […] The cells were washed twice with warm PBS containing 2.5% FCS, cultured for 2 h in […] medium and illuminated as described above. Fluorescence readings were taken directly after illumination. A blank probe (cells and medium) reading was used as the background and subtracted from all the sample readings.

CHO-K1 = experiment: XTT cell proliferation assay (phototoxicity), CHO-K1 negative control; type: cell-based, Chinese hamster; conditions: CHO-K1 exposed to 800 nM; with light activation
Procedure: All cell lines were […], including the EGFR^+ A431, MDA-MB-231, MDA-MB468 and SiHa cells, and the EGFR^− L540, CHO-K1 and HEK-293T cells. A431, L540, CHO-K1 and HEK-293T cells were cultured in RPMI-1640 medium supplemented with 2 mM L-glutamine, 10% (v/v) fetal bovine serum (FBS) and 100 U/ml penicillin-streptomycin. MDA-MB-231, MDA-MB468 and SiHa cells were cultured in DMEM with 10% (v/v) fetal bovine serum (FBS) and 100 U/ml penicillin-streptomycin. All cells were incubated at 37° C. in a 5% CO2 atmosphere. All media and additives were obtained from Invitrogen, Darmstadt, Germany.
as §1
Cell viability was determined using the XTT cell proliferation kit II (Roche, Mannheim Germany), 24 h after light activation. […] Reduction of XTT to formazan by viable tumor cells was monitored colorimetrically at an absorbance wavelength of 450 nm and a reference wavelength of 630 nm using an ELISA plate reader Elisareader ELx808 (Bio-TEK, Bad Friedrichsahll, Germany).

scFv-425-SNAP-Ce6
levels of caspase-3 and caspase-7 (caspase-3 and caspase-7): increased
membrane staining (confocal microscopy) ([1]; 0.5 μg, 30 min at 4° C.): strong, specific and homogeneous membrane staining
internalization (uptake into cells, confocal microscopy) ([1]; 30-min incubation at 37° C.): specifically and efficiently taken up
Ce6 fluorescence signal (confocal microscopy) [2]: no signal was detected
ROS synthesis (DCF 485/535-nm fluorescence) (A431 cells; after light activation): burst of ROS synthesis
ROS levels (DCF 485/535-nm fluorescence) (A431 cells; non-irradiated cells): only a small increase in ROS levels
cell viability (CHO-K1): remained unaffected
